Measurements: the supplement of paper PMC10307832

Legend:
Experiment in all cases: relative viability (nuclei count vs DMSO), 5 days (fraction); higher = more cells survive
XMD13-2 + Pictilisib = compound: C1CC1C(=O)NC2=NNC3=C2C=CC(=C3)C4=CC(=CC=C4)C(=O)NC5CC5 [XMD13-2] + CS(=O)(=O)N1CCN(Cc2cc3nc(-c4cccc5[nH]ncc45)nc(N4CCOCC4)c3s2)CC1 [Pictilisib] (partner 1 µM)
In short: (§1)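 A single step with final 0.05% Triton X-100, 1% formaldehyde and 1 ug/ml Hoechst fixed the cells and stained nuclei 5 days after treatment. Lung cancer cell lines in 1536-well plates had been treated by pin tool the day after seeding with one drug alone or a fixed anchor-drug dose plus five library-drug doses (not always all listed) in √10 steps, and nuclei were counted on 4× images. Relative viability is the ratio of nuclei in treated wells to nuclei in vehicle wells, taken as the median of duplicate plates.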

XMD13-2 + Pemetrexed = compound: C1CC1C(=O)NC2=NNC3=C2C=CC(=C3)C4=CC(=CC=C4)C(=O)NC5CC5 [XMD13-2] + Nc1nc2[nH]cc(CCc3ccc(C(=O)N[C@@H](CCC(=O)O)C(=O)O)cc3)c2c(=O)[nH]1 [Pemetrexed] (partner 0.2 µM)
In short: as §1

Dasatinib + Crizotinib = compound: Cc1nc(Nc2ncc(C(=O)Nc3c(C)cccc3Cl)s2)cc(N2CCN(CCO)CC2)n1 [Dasatinib] + C[C@@H](Oc1cc(-c2cnn(C3CCNCC3)c2)cnc1N)c1c(Cl)ccc(F)c1Cl [Crizotinib] (partner 1 µM)
In short: as §1

Dasatinib + Foretinib = compound: Cc1nc(Nc2ncc(C(=O)Nc3c(C)cccc3Cl)s2)cc(N2CCN(CCO)CC2)n1 [Dasatinib] + COc1cc2c(Oc3ccc(NC(=O)C4(C(=O)Nc5ccc(F)cc5)CC4)cc3F)ccnc2cc1OCCCN1CCOCC1 [Foretinib] (partner 0.25 µM)
In short: as §1

| Cell Line | relative viability (XMD13-2 + Pictilisib; first compound 0.05 µM) | relative viability (XMD13-2 + Pictilisib; first compound 0.1581 µM) | relative viability (XMD13-2 + Pictilisib; first compound 0.5 µM) | relative viability (XMD13-2 + Pictilisib; first compound 1.581 µM) | relative viability (XMD13-2 + Pictilisib; first compound 5 µM) | relative viability (XMD13-2 + Pemetrexed; first compound 0.05 µM) | relative viability (XMD13-2 + Pemetrexed; first compound 0.1581 µM) | relative viability (XMD13-2 + Pemetrexed; first compound 0.5 µM) | relative viability (XMD13-2 + Pemetrexed; first compound 1.581 µM) | relative viability (XMD13-2 + Pemetrexed; first compound 5 µM) | relative viability (Dasatinib + Crizotinib; first compound 0.005 µM) | relative viability (Dasatinib + Crizotinib; first compound 0.01581 µM) | relative viability (Dasatinib + Crizotinib; first compound 0.05 µM) | relative viability (Dasatinib + Crizotinib; first compound 0.1581 µM) | relative viability (Dasatinib + Crizotinib; first compound 0.5 µM) | relative viability (Dasatinib + Foretinib; first compound 0.005 µM) | relative viability (Dasatinib + Foretinib; first compound 0.01581 µM) | relative viability (Dasatinib + Foretinib; first compound 0.05 µM) | relative viability (Dasatinib + Foretinib; first compound 0.1581 µM) | relative viability (Dasatinib + Foretinib; first compound 0.5 µM) |
| --- | --- | --- | --- | --- | --- | --- | --- | --- | --- | --- | --- | --- | --- | --- | --- | --- | --- | --- | --- | --- |
| HCC-44 | 0.665 | 0.597 | 0.609 | 0.533 | 0.571 | 0.573 | 0.536 | 0.67 | 0.727 | 0.631 | 0.86 | 0.904 | 0.945 | 0.36 | 0.213 |  |  |  |  |  |
| HCC-78 | 0.227 | 0.281 | 0.195 | 0.223 | 0.188 | 0.921 | 0.918 | 0.883 | 0.962 | 0.964 | 0.314 | 0.289 | 0.25 | 0.158 | 0.145 | 0.549 | 0.461 | 0.384 | 0.302 | 0.249 |
| HCC-366 | 0.189 | 0.136 | 0.151 | 0.2 | 0.12 | 0.147 | 0.175 | 0.164 | 0.172 | 0.187 | 0.374 | 0.18 | 0.158 | 0.0803 | 0.0691 | 0.739 | 0.588 | 0.543 | 0.563 | 0.449 |
| HCC-827 | 1.01 | 0.901 | 1.18 | 0.913 | 0.67 | 0.264 | 0.27 | 0.211 | 0.272 | 0.261 | 0.924 | 0.82 | 0.807 | 0.385 | 0.145 | 1.06 | 0.898 | 0.748 | 0.288 | 0.0947 |
| HOP-62 | 1.01 | 0.617 | 0.586 | 0.725 | 0.476 | 0.264 | 0.339 | 0.299 | 0.285 | 0.278 | 1.16 | 0.966 | 0.91 | 0.816 | 0.165 | 1.18 | 1.12 | 1 | 0.518 | 0.197 |
| IA-LM | 0.387 | 0.317 | 0.339 | 0.3 | 0.179 |  |  |  |  |  | 1.05 | 1.06 | 1.45 | 0.674 | 0.442 | 1.16 | 1.09 | 1.1 | 0.634 | 0.462 |
| LC-2-ad | 0.533 | 0.352 | 0.569 | 0.413 | 0.332 | 0.285 | 0.26 | 0.282 | 0.303 | 0.256 | 0.416 | 0.329 | 0.326 | 0.257 | 0.2 | 1.04 | 0.802 | 0.473 | 0.369 | 0.293 |
| LCLC-97TM1 | 0.297 | 0.187 | 0.13 | 0.148 | 0.123 | 0.178 | 0.155 | 0.166 | 0.185 | 0.159 | 0.336 | 0.485 | 0.307 | 0.238 | 0.146 | 0.968 | 0.955 | 1.04 | 0.78 | 0.461 |
| LCLC-103H | 0.684 | 0.714 | 0.585 | 0.657 | 0.622 | 0.421 | 0.473 | 0.471 | 0.483 | 0.461 | 0.992 | 1.05 | 0.968 | 0.734 | 0.488 | 0.725 | 0.626 | 0.55 | 0.378 | 0.157 |
| LK-2 | 0.744 | 0.464 | 0.581 | 0.619 | 0.582 | 0.297 | 0.284 | 0.266 | 0.291 | 0.393 | 0.266 | 0.209 | 0.222 | 0.189 | 0.179 | 1.08 | 0.967 | 0.656 | 0.588 | 0.304 |
| NCI-H522 |  |  |  |  |  | 1.24 | 1.05 | 1.1 | 1.08 | 0.886 |  |  |  |  |  |  |  |  |  |  |
| NCI-H727 | 0.421 | 0.321 | 0.36 | 0.527 | 0.551 |  |  |  |  |  | 0.707 | 0.548 | 0.491 | 0.241 | 0.223 | 0.616 | 0.512 | 0.431 | 0.278 | 0.185 |
| NCI-H1299 | 0.896 | 0.738 | 0.826 | 0.592 | 0.398 |  |  |  |  |  | 0.966 | 0.975 | 0.779 | 0.274 | 0.256 | 1.11 | 0.708 | 1.09 | 0.386 | 0.255 |
| NCI-H1395 | 0.724 | 0.646 | 0.623 | 0.574 | 0.528 | 0.93 | 0.998 | 0.879 | 0.876 | 0.911 |  |  |  |  |  | 1 | 1.08 | 1.04 | 0.585 | 0.331 |
| NCI-H1623 |  |  |  |  |  |  |  |  |  |  |  |  |  |  |  | 0.855 | 0.675 | 0.8 | 0.672 | 0.457 |
| NCI-H1648 |  |  |  |  |  | 0.702 |  | 0.726 | 0.705 | 0.719 |  |  |  |  |  |  |  |  |  |  |
| NCI-H1703 | 0.296 | 0.262 | 0.267 | 0.237 | 0.193 |  |  |  |  |  | 0.652 | 0.18 | 0.203 | 0.154 | 0.108 | 0.276 | 0.292 | 0.23 | 0.202 | 0.262 |
| NCI-H1792 | 0.29 | 0.249 | 0.266 | 0.284 | 0.265 | 1.16 | 0.694 | 0.922 | 0.75 | 1.14 | 0.938 | 0.916 | 0.874 | 0.753 | 0.51 |  |  |  |  |  |
| NCI-H1793 | 0.288 | 0.442 | 0.373 | 0.403 | 0.192 | 1.26 | 0.83 | 0.94 | 0.859 | 0.97 |  |  |  |  |  | 0.553 | 0.528 | 0.374 | 0.337 | 0.359 |
| NCI-H2342 |  |  |  |  |  | 0.806 | 0.711 | 0.772 | 0.72 | 0.775 |  |  |  |  |  | 1.02 | 0.662 | 0.977 | 0.51 | 0.34 |
| SW 900 |  |  |  |  |  | 0.485 | 0.502 | 0.508 | 0.493 | 0.529 |  |  |  |  |  | 0.685 | 0.608 | 0.787 | 0.476 | 0.225 |
